Assay results taken from the NIST ThermoML archive (doi:10.1021/je0302001).
Numbers after ± are expanded uncertainties.

Assay: mn = molality of the nth substance listed, in mol/kg
Settings: for surface tension liquid-gas: Ring tensiometer; for viscosity / speed of sound: 101.3 kPa, Liquid; for viscosity: Capillary tube (Ostwald / Ubbelohde) method

O=[N+]([O-])[O-].O=[N+]([O-])[O-].[Zn+2] [nitric acid, zinc salt] + O
Settings	speed of sound [m/s]	surface tension liquid-gas [mN/m]	viscosity [mPa·s]
273.15 K, m1 = 0.0875	1413 ± 3.8	–	–
273.15 K, m1 = 0.1329	1413.5 ± 3.8	–	1.863 ± 0.021
273.15 K, m1 = 0.2263	–	75.65 ± 0.96	–
273.15 K, m1 = 0.2466	1422.7 ± 3.9	–	1.905 ± 0.022
273.15 K, m1 = 0.334	–	75.79 ± 0.96	–
273.15 K, m1 = 0.3388	1429.7 ± 3.9	–	1.95 ± 0.022
273.15 K, m1 = 0.6111	1454.8 ± 3.9	–	2.081 ± 0.024
273.15 K, m1 = 0.6198	–	76.35 ± 0.97	–
273.15 K, m1 = 0.6405	1457 ± 3.9	–	2.103 ± 0.024
273.15 K, m1 = 0.8228	–	77.03 ± 0.98	–
273.15 K, m1 = 1.113	1500.1 ± 4	–	2.431 ± 0.028
273.15 K, m1 = 1.258	1516.9 ± 4.1	–	2.573 ± 0.03
273.15 K, m1 = 1.259	–	78.02 ± 1	–
273.15 K, m1 = 1.549	–	78.63 ± 1	–
273.15 K, m1 = 1.551	1544.4 ± 4.1	–	2.833 ± 0.033
273.15 K, m1 = 1.818	–	78.99 ± 1	–
273.15 K, m1 = 1.906	1578.6 ± 4.2	–	3.306 ± 0.038
273.15 K, m1 = 2.145	1600.1 ± 4.2	–	3.662 ± 0.043
273.15 K, m1 = 2.222	–	80.42 ± 1	–
273.15 K, m1 = 2.29	1612.6 ± 4.3	–	3.902 ± 0.046
273.15 K, m1 = 2.292	1612.3 ± 4.3	–	–
273.15 K, m1 = 2.344	1617.4 ± 4.3	–	3.935 ± 0.046
273.15 K, m1 = 2.526	–	81.29 ± 1.1	–
273.15 K, m1 = 2.721	–	81.96 ± 1.1	–
273.15 K, m1 = 2.91	1663.1 ± 4.4	–	5.033 ± 0.059
273.15 K, m1 = 3.426	–	83.68 ± 1.1	–
273.15 K, m1 = 3.472	1707.7 ± 4.5	–	6.559 ± 0.078
273.15 K, m1 = 4.011	–	85.35 ± 1.1	–
273.15 K, m1 = 4.075	1740.8 ± 4.6	–	8.684 ± 0.1
273.15 K, m1 = 4.231	–	85.77 ± 1.1	–
273.15 K, m1 = 4.817	1780.2 ± 4.7	–	12.49 ± 0.15
273.15 K, m1 = 5.133	–	87.84 ± 1.2	–
273.15 K, m1 = 5.224	1794 ± 4.7	–	15.05 ± 0.18
278.15 K, m1 = 0.0875	1435.8 ± 3.9	–	–
278.15 K, m1 = 0.1329	1436.3 ± 3.9	–	1.585 ± 0.018
278.15 K, m1 = 0.2466	1444.2 ± 3.9	–	1.626 ± 0.019
278.15 K, m1 = 0.3388	1450.4 ± 3.9	–	1.667 ± 0.019
278.15 K, m1 = 0.6111	1472.6 ± 4	–	1.788 ± 0.02
278.15 K, m1 = 0.6405	1474.8 ± 4	–	1.807 ± 0.021
278.15 K, m1 = 1.113	1514.5 ± 4.1	–	2.096 ± 0.024
278.15 K, m1 = 1.258	1530.4 ± 4.1	–	2.221 ± 0.026
278.15 K, m1 = 1.551	1555 ± 4.1	–	2.436 ± 0.028
278.15 K, m1 = 1.906	1586.2 ± 4.2	–	2.838 ± 0.033
278.15 K, m1 = 2.145	1606.1 ± 4.3	–	3.15 ± 0.037
278.15 K, m1 = 2.29	1618.1 ± 4.3	–	3.351 ± 0.039
278.15 K, m1 = 2.292	1617.3 ± 4.3	–	–
278.15 K, m1 = 2.344	1622.2 ± 4.3	–	3.38 ± 0.04
278.15 K, m1 = 2.91	1664.7 ± 4.4	–	4.293 ± 0.051
278.15 K, m1 = 3.472	1703.6 ± 4.5	–	5.554 ± 0.066
278.15 K, m1 = 4.075	1737.6 ± 4.6	–	7.273 ± 0.087
278.15 K, m1 = 4.817	1772.3 ± 4.6	–	10.32 ± 0.12
278.15 K, m1 = 5.224	1786.4 ± 4.7	–	12.33 ± 0.15
283.15 K, m1 = 0.2263	–	74.42 ± 0.94	–
283.15 K, m1 = 0.334	–	74.63 ± 0.95	–
283.15 K, m1 = 0.6198	–	75.26 ± 0.96	–
283.15 K, m1 = 0.8228	–	75.94 ± 0.97	–
283.15 K, m1 = 1.259	–	77.01 ± 0.99	–
283.15 K, m1 = 1.549	–	77.42 ± 1	–
283.15 K, m1 = 1.818	–	78.05 ± 1	–
283.15 K, m1 = 2.222	–	79.29 ± 1	–
